Values quoted from earlier work, collected in article PMC13343212, “Hybrid Aminoferrocenes With Nitrate Esters for In Situ Peroxynitrite Generation: Complex Interplay Between Redox Chemistry, NO‐Donor Reactivity, and Aminoferrocene Activation Influences In Vitro Anticancer Activity” (Chembiochem, 2026).

Conditions: references for RP‐TLC calibration

## c1ccc2cc3ccccc3cc2c1 [anthracene]
  LogP of known references: 4.50

## c1cc2cccc3c4cccc5cccc(c(c1)c23)c54 [perylene]
  LogP of known references: 6.25
